The source of these data is patent USRE48461E1, “Modulation of androgen receptor expression” (Ionis Pharmaceuticals, Inc., priority 2012, dated 2021).

e = 2'-O-(2-methoxyethyl) (MOE); d = 2'-deoxy (DNA)

One series concerns testosterone. In words: Serum testosterone levels in cynomolgus monkeys (ELISA). Type of series: in vivo. Particulars: cynomolgus monkey, 40 mg/kg subcutaneously. As to the method: Serum testosterone protein levels were measured in the plasma with an ELISA kit (Enzo Life Sciences), following the manufacturer's instructions.
The conditions of series [1]: cynomolgus monkey, in vivo, sc, 40 mg/kg.
Procedure: (§5) Prior to the study, the monkeys were kept in quarantine for a 30-day period, during which the animals were observed daily for general health. The monkeys were 2-4 years old and weighed between 2 and 4 kg. Thirteen groups of four randomly assigned male cynomolgus monkeys each were injected subcutaneously with ISIS oligonucleotide or PBS. PBS solution or ISIS oligonucleotides, at a dose of 40 mg/kg, were administered with a loading regimen consisting of four doses on the first week of the study (days 1, 3, 5, and 7), followed by a maintenance regimen consisting of once weekly administration starting on Day 14 (weeks 2 to 6). Subcutaneous injections were performed in clock-wise rotations at 4 sites on the back; one site per dose. The injection sites were delineated by tattoo, while sedated using ketamine, and were separated by a minimum of 3 cm.
To evaluate the effect of ISIS oligonucleotides on the overall health of the animals, body and organ weights were measured.
The conditions of series [2]: cynomolgus monkey, in vivo, sc, 40 mg/kg. This is another data set of the same source.
For series [3] the following is noted: cynomolgus monkey, in vivo, sc, 40 mg/kg. This is another data set of the same source.
The conditions of series [4]: cynomolgus monkey, in vivo, sc, 40 mg/kg. The source holds these as a separate data set.
Procedure: as §5
To evaluate the effect of ISIS oligonucleotides on kidney function, the monkeys were fasted overnight. Approximately, 1.5 mL of blood samples were collected from all the study groups on day 44. Blood was collected in tubes without anticoagulant for serum separation. The tubes were kept at room temperature for a minimum of 90 min and then centrifuged at 3,000 rpm for 10 min. Levels of BUN and creatinine were measured using a Toshiba 120FR NEO chemistry analyzer (Toshiba Co., Japan).
For series [5] the following is noted: cynomolgus monkey, in vivo, sc, 40 mg/kg. This is another data set of the same source.
The conditions of series [6]: cynomolgus monkey, in vivo; for Oligonucleotide concentration, Kidney / Oligonucleotide concentration, Liver: sc, 40 mg/kg.
Procedure: as §5
The concentrations of the full-length oligonucleotide in the kidney and the liver of select treatment groups were measured. The method used is a modification of previously published methods (Leeds et al., 1996; Geary et al., 1999) which consist of a phenol-chloroform (liquid-liquid) extraction followed by a solid phase extraction.
The conditions of series [7]: cynomolgus monkey, in vivo, sc, 40 mg/kg. This is another data set of the same source.
Procedure: as §5
Kidney function was also assessed by urinalysis. Fresh urine from all animals was collected on day 44 using a clean cage pan on wet ice. Food was removed overnight the day before fresh urine collection was done but water was supplied. The total protein and creatinine levels were measured using a Toshiba 120FR NEO automated chemistry analyzer (Toshiba Co., Japan) and the protein to creatinine ratio was calculated.
The test system of a further series is full-length AR. In words: Western blot of full-length AR in MDV3100-resistant C4-2B cells. The series is classed as cell-based, human. The note with it: C4-2B MR cells (Example 16). As to the method: (§1) ISIS 549372, ISIS 549434, and ISIS 554221 at 1 μM concentration of antisense oligonucleotide were each added to the culture media at 1 μM concentration for free uptake by the cells. After a treatment period of 2 days, cells were harvested in RIPA buffer containing protease inhibitors. The presence of bands for full-length AR, as well as the variant form, AR-V7, was detected by western blot using AR antibody (N-20, Santa Cruz).
(§2) Western analysis of full-length AR, as well as the AR-V7 variant, was also conducted in a manner similar to the assay described above.

A further series concerns AR-V7. Put plainly: Western blot of AR-V7 in MDV3100-resistant C4-2B cells. Type of series: cell-based, human. The note with it: C4-2B MR cells (Example 16). The protocol: as §1, §2
The next series relates to AR full-length mRNA. Put plainly: AR full-length mRNA in CWR22-RV1 cells (RNAiMax, RTS3559). The series is classed as cell-based, human. The note with it: 6 days. As to the method: (§3) CWR22-RV1 cells were plated and transfected using RNAiMax reagent (Life Technologies) with ISIS oligonucleotides at 1.7 nM, 5.0 nM, 16.7 nM, or 50 nM concentrations. ISIS 347526 was included as a negative control. After a treatment period of 6 days, the target reduction and proliferative capacity of the cancer cells was measured.
(§4) Antisense inhibition of AR full-length mRNA was measured with the RTS3559 primer probe set. The results are presented in Table 63 as percent inhibition relative to non-treated cells. The reduction in V7 splice variant of the AR mRNA was also measured by RT-PCR using SYBR Green staining (Hu, R. et al., Cancer Res. 2009. 69: 16-22). The results are presented in Table 64, as percent reduction, relative to non-treated cells. Cell proliferation was measured with CellTiter 96® AQueous One Solution Cell Proliferation kit (Promega), following the manufacturer's instructions. Results are presented in Table 65 as percent inhibition of proliferation, relative to non-treated cells.

For series [8], the system named is V7 splice variant of the AR mRNA. Put plainly: AR V7 splice variant mRNA in CWR22-RV1 cells (RT-PCR SYBR Green). The note with it: RNAiMax, 6 days. The series is classed as cell-based, human. The protocol:
as §3, §4

For the next series, the system named is CWR22-RV1 cells. In words: CWR22-RV1 cell proliferation (CellTiter 96). The series is classed as cell-based, human. The note with it: RNAiMax, 6 days. As to the method:
as §3, §4

Substance “TGATTTAATGGTTGCA [ISIS 569221] (cEt/MOE gapmer chemistry, further chemistry not given here)” came in with a Serum testosterone level with testosterone (40 mg/kg) of 8.8 ng/mL. In series [1], the “Body Wt” value turned out to be 2.5 kg, the Heart weight is listed as 8.5 g, the Kidney weight is 14 g and the Liver weight is 68 g. Besides, in [1], the “Mesenteric lymph nodes weight” value is recorded as 3.5 g and the Spleen weight came out at 3.3 g. In [2], this substance gave an ALT of 48 IU/L, an AST of 73 IU/L and an Albumin of 4.0 g/dL. In series [3], this substance gave an HCT of 45%, a Hemoglobin of 12.9 g/dL, a Platelets of 406000 µL and an RBC of 5.6e+06 µL. The substance further gave a WBC in [3] of 11100 µL. In [4], the “Plasma BUN” value worked out at 20.2 mg/dL and the “Plasma Creatinine” value came to 0.86 mg/dL. Also, in [5], the “C3 (% of baseline)” value was 91 % of baseline and the CRP was found to be 4.9 mg/dL. Also, in [6], the “Oligonucleotide concentration, Kidney” value was 1372 μg/g tissue and the “Oligonucleotide concentration, Liver” value was found to be 966 μg/g tissue.
In turn, “TTGATTTAATGGTTGC [ISIS 579671] (cEt/MOE gapmer chemistry, further chemistry not given here)” came in with a Serum testosterone level in the series on testosterone (40 mg/kg) of 7.3 ng/mL. For the same substance, in series [1], the “Body Wt” value is 2.4 kg, the Heart weight is reported as 8.8 g, the Kidney weight is reported as 14 g and the Liver weight was 62 g. Besides, in series [1], the “Mesenteric lymph nodes weight” value came out at 2.5 g and the Spleen weight came out at 3.2 g. In addition, in [2], the ALT amounted to 56 IU/L, the AST is listed as 53 IU/L and the Albumin was 4.0 g/dL. In series [3], this substance came in with an HCT of 42%, a Hemoglobin of 12.5 g/dL, a Platelets of 438000 µL and an RBC of 5.4e+06 µL. The substance further gave a WBC in series [3] of 10000 µL. In series [4], the “Plasma BUN” value is on record as 22.7 mg/dL and the “Plasma Creatinine” value turned out to be 0.74 mg/dL. The Urine protein/creatinine ratio in series [7] is on record as 0.00. Moreover, in series [5], the “C3 (% of baseline)” value is 101 % of baseline and the CRP was determined as 4.5 mg/dL. Further, in [6], the K/L ratio was determined as 3.0; the “Oligonucleotide concentration, Kidney” value is listed as 2576 μg/g tissue; the “Oligonucleotide concentration, Liver” value is on record as 871 μg/g tissue.
Take “TCTTATGTTTCCGAACCGTT (sugars from the 5' end e5 d10 e5, backbone and methylation of C not given here) [ISIS 347526, reference compound]”: the “levels of full-length AR (Western analysis)” value in the series with full-length AR is recorded as “did not reduce protein levels”. In addition, the “levels of AR-V7 (Western analysis)” value in the series on AR-V7 is on record as “did not reduce protein levels”. The figures for the “Percent inhibition of AR full-length mRNA” value in the series with AR full-length mRNA (dose 5.0 nM), in the series with AR full-length mRNA (dose 16.7 nM) and with AR full-length mRNA (dose 50.0 nM) were 3%, 4% and 0%, respectively. For the same substance, the entries for the “Percent inhibition of AR splice variant, V7” value in series [8] (dose 5.0 nM), in series [8] (dose 16.7 nM) and in series [8] (dose 50.0 nM) were 0%, 0% and 10%, respectively. Further, the “Percent inhibition of cell proliferation” value in the series on CWR22-RV1 cells (dose 5.0 nM), in the series on CWR22-RV1 cells (dose 16.7 nM) and in the series with CWR22-RV1 cells (dose 50.0 nM) was 0% each time.
In turn, “ISIS 584269: antisense compound targeted to human AR (CCTTATGGATGCTGCT; 3-10-3 (S)-cEt gapmer, further chemistry not given here)” displayed a Serum testosterone level in the series on testosterone of 14.1 ng/mL. In series [1], the “Body Wt” value came to 2.5 kg, the Heart weight is 8.7 g, the Kidney weight is given as 13 g and the Liver weight is listed as 60 g. In addition, in series [1], the “Mesenteric lymph nodes weight” value is on record as 3.6 g and the Spleen weight came to 4.7 g. In series [2], this substance displayed an ALT of 75 IU/L, an AST of 81 IU/L and an Albumin of 4.0 g/dL. In [3], this substance returned an HCT of 41%, a Hemoglobin of 12.4 g/dL, a Platelets of 522000 µL and an RBC of 5.2e+06 µL. Besides, the WBC in [3] worked out at 9800 µL. Moreover, in [4], the “Plasma BUN” value is reported as 21.8 mg/dL and the “Plasma Creatinine” value is reported as 0.89 mg/dL. Also, the Urine protein/creatinine ratio in series [7] is reported as 0.00. In addition, in series [5], the “C3 (% of baseline)” value is reported as 102 % of baseline and the CRP was 4.9 mg/dL. For the same substance, in series [6], the K/L ratio is on record as 4.0; the “Oligonucleotide concentration, Kidney” value amounted to 2823 μg/g tissue; the “Oligonucleotide concentration, Liver” value was determined as 698 μg/g tissue.
“ISIS 584468: antisense compound targeted to human AR (CATTGTACTATGCCAG; 3-10-3 (S)-cEt gapmer, further chemistry not given here)” registered a Serum testosterone level in the series with testosterone of 13.6 ng/mL. Further, in series [1], the “Body Wt” value was 2.5 kg, the Heart weight is reported as 8.3 g, the Kidney weight is listed as 13 g and the Liver weight is given as 60 g. In [1], the “Mesenteric lymph nodes weight” value was found to be 3.8 g and the Spleen weight is on record as 4.1 g. In [2], this substance showed an ALT of 46 IU/L, an AST of 52 IU/L and an Albumin of 4.0 g/dL. In [3], this substance displayed an HCT of 45%, a Hemoglobin of 13.5 g/dL, a Platelets of 408000 µL and an RBC of 5.9e+06 µL. In addition, the WBC in series [3] is 11100 µL. Besides, in series [4], the “Plasma BUN” value turned out to be 22.2 mg/dL and the “Plasma Creatinine” value is on record as 0.78 mg/dL. The Urine protein/creatinine ratio in series [7] stood at 0.00. For the same substance, in series [5], the “C3 (% of baseline)” value is recorded as 111 % of baseline and the CRP amounted to 1.3 mg/dL. In addition, in series [6], the K/L ratio came out at 5.2; the “Oligonucleotide concentration, Kidney” value worked out at 2441 μg/g tissue; the “Oligonucleotide concentration, Liver” value came out at 474 μg/g tissue.
